According to US7538120B2, “Method of treating inflammatory diseases” (Array Biopharma Inc., priority 2003, dated 2009):
“Also recorded” adds a separate entry of the source.

Key:
[1] = system: carrageenan paw edema in rats; test: Carrageenan paw edema model in rats; type: in vivo, rat; settings: for paw weight: 3, 10 and 30 mg/kg oral, 2 h before carrageenan, 4 h after injection, FIG. 11; for ED50: Rattus norvegicus, oral, single dose, read-out: ED50 (paw weight); for activity compared with indomethacin: vs indomethacin 2 mg/kg (positive control)
Description: The rat carrageenan paw edema model of inflammation was utilized to evaluate the effectiveness of AR-13 and AR-14 in ameliorating swelling and inflammation.
Male Lewis rats (7-9 weeks of age; 10 per group) were acclimated for at least 7 days after arrival.
Acclimated animals were randomized into groups by body weight. Animals were treated orally with AR-13 or AR-14 (3, 10 or 30 mg/kg) or with a positive control (indomethacin, 2 mg/kg). After 2 hours, the animals were anesthetized with Isoflurane and given an intradermal injection of 1.2% carrageenan into the right hind footpad. Four hours after the carrageenan injection, the animals were sacrificed with carbon dioxide inhalation and both paws were removed at the medial malleolus and weighed. The difference in weight between the right (carrageenan) and left (normal) paws was calculated.

MEK = MEK inhibition in vivo (stated in summary, no method given)
[2] = system: indomethacin-induced IBD in rats; test: Indomethacin-induced inflammatory bowel disease (model of Crohn's disease) in rats; type: in vivo
Description: This study evaluated AR-14 (PO, QD) in a model of Crohn's disease (indomethacin induced intestinal injury) in rats to determine if beneficial effects could be detected in this IBD model.
Rats received two subcutaneous administrations of indomethacin (7.5 mg/kg, in 5% NaHCO3) spaced 24 hours apart. Rats received once daily oral doses of vehicle, AR-14 (1, 3, 10 or 30 mg/kg) or dexamethasone (0.1 mg/kg). Rats were euthanized and evaluated for effects of treatment at day 4 post-initial indomethacin injection. Body weights were taken as well as intestinal weights per 10 cm of area at risk.
A clinical scoring index (Table 8) was used to assess disease progression. Intestines were scored for gross lesions and multiple sections of gut taken for histology (5 sections per rat spaced equally along area at risk).
Five equally spaced sections from area at risk were scored for necrosis and inflammation (0,0) (1,3) etc., according to the criteria in Tables 9 and 10.

[3] = system: type II collagen-induced arthritis in rats; test: Established type II collagen-induced arthritis (CIA) in rats; type: in vivo
Description: Type II collagen-induced arthritis (CIA) in rats is an experimental model of arthritis that has a number of pathologic, immunologic, and genetic features in common with rheumatoid arthritis.
Female Lewis rats (7-9 weeks of age; 8 per group for arthritis, 4 per group for normal control) were acclimated for 7 days after arrival.
Acclimated animals were anesthetized with Isoflurane. The disease was induced by immunization of the rats with type II collagen (equal mixture of 4 mg/mL bovine type II collagen in 0.01 N acetic acid and Freund's incomplete adjuvant) by injection (day 0). On day 6, the rats were anesthetized again for the second collagen injection. Each animal received 300 μL of the collagen mixture on days 0 and 6, which was spread over 3 sites on the back.
Caliper measurements of normal (pre-disease) right and left ankle joints were taken on day 9 post-collagen injection. On days 10-11, onset of arthritis occurred and rats were randomized into treatment groups. Randomization into each group was done after ankle joint swelling was established in at least one hind paw.
Once enrolled in the treatment groups, treatment with once daily oral dosing of AR-14 (1, 3, 10, 30 or 60 mg/kg) or indomethacin (1 mg/kg) was initiated. Animals receiving vehicle or compound were enrolled and daily dosing was initiated using a volume of 5 mL/kg for oral solutions. ENBREL (etanercept) treatment was on days 11 and 15 (10 mg/kg) by subcutaneous administration. Rats were weighed on days 11-18 and caliper measurements of ankles were taken every day. Final body weights were taken on day 19. On day 19, animals were euthanized, both hind paws and knees were removed, hind paws were weighed and then (with knees) placed in formalin.
Following 1-2 days in fixative and then 4-5 days in decalcifier, the ankle joints and knees were processed, embedded, sectioned and stained with toluidine blue.
A clinical scoring index was used to assess disease progression. Collagen arthritic ankles and knees were given scores of 0-5 for inflammation, pannus formation and bone resorption according to the criteria in Tables 1-7.
Clinical data for ankle joint diameter were analyzed by determining the area under the dosing curve (AUC). For calculation of AUC, the daily measurements of ankle joints (using a caliper) for each rat were entered into Microsoft Excel and the area between the treatment days after the onset of disease to the termination day was computed. Means for each group were determined and percent inhibition from arthritis controls was calculated by comparing values for treated and normal animals. Data were analyzed by the Mann Whitney or Student's t test. Paw weights and histologic parameters (mean±SE) for each group were analyzed for differences using the Mann Whitney or Student's t test. In both cases, significance was set at p≦0.05.
Percent inhibition of paw weight and AUC was calculated using the following formula: % Inhibition=A−(B/A)×100
wherein A=(Mean Disease Control−Mean Normal) and B=(Mean Treated−Mean Normal).

[4] = system: adjuvant-induced arthritis in rats; test: Adjuvant-induced arthritis (AIA) in rats; type: in vivo
Description: Male Lewis rats (7-9 weeks of age; 8 per group for arthritis, 4 per group for normal control) were acclimated for 7 days after arrival.
Acclimated animals were randomized into groups by body weight and then anesthetized with Isoflurane and given lipoidal amine (LA) in Freund's complete adjuvant (100 μL injection of 7 mg LA, intradermal administration at the base of the tail, Day 0).
Caliper measurements of normal (pre-disease) right and left ankle joints were taken on day 7 post-adjuvant injection. On day 8, dosing began for vehicle and AR-14 treatment groups. Methotrexate treatment (0.075 mg/kg) began on day 0 prior to adjuvant injection.
Once enrolled in the treatment group, treatment with once daily oral doses of AR-14 (1, 3, 10 or 30 mg/kg) was initiated. […] Animals receiving vehicle or compound were enrolled and daily dosing was initiated using a volume of 5 mL/kg for oral solutions on days 8-14. Rats were weighed on days 8-14 and caliper measurements of ankles were taken every day. Final body weights and caliper measurements of ankles and paws were taken on day 15. On day 15, animals were euthanized, both hind paws were removed, and the hind paws weighed and then placed in formalin for histopathologic analyses. Spleens were also removed, weighed and placed in formalin for histopathologic analyses.

[5] = 10 and 30 mg/kg vs dexamethasone 0.1 mg/kg

## O=C(NOCCO)c1cn2ccnc2c(Cl)c1Nc1ccc(Br)cc1F [AR-13, 7-(4-bromo-2-fluorophenylamino)-8-chloroimidazo[1,2-a]pyridine-6-carboxylic acid (2-hydroxyethoxy)-amide]
[1]
  paw weight: significantly inhibit
  ED50: ~10 mg/kg
  activity compared with indomethacin: superior to the positive control indomethacin

## O=C(NOCCO)c1cn2ccnc2c(Cl)c1Nc1ccc(Br)cc1Cl [AR-14, 7-(4-bromo-2-chlorophenylamino)-8-chloroimidazo[1,2-a]pyridine-6-carboxylic acid (2-hydroxyethoxy)-amide]
MEK
  selectivity for MEK in vivo: selective inhibitor of MEK in vivo
[1]
  paw weight: significantly inhibit
  ED50: ~4 mg/kg
  activity compared with indomethacin: superior to the positive control indomethacin
[2]; 30 mg/kg, FIG. 10
  histopathology of the gut (necrosis and inflammation scored) compared with dexamethasone: significantly more efficacious than dexamethasone
[2]; 3, 10 and 30 mg/kg, after 4 days, FIG. 9
  small intestine weight gain as a result of edema/inflammation: significantly inhibited
[2]; [5]
  inhibition of gross lesion score compared with dexamethasone: significantly better than dexamethasone
  inhibition of intestinal inflammation and edema, small intestine necrosis and inflammation compared with dexamethasone: significantly better than dexamethasone
[2]; all doses (1, 3, 10, 30 mg/kg), after 4 days, FIG. 8
  gross lesion score (small intestine): significantly inhibited
[2]; all doses administered
  tolerability: well tolerated
[2]; once daily dosing at 10 mg/kg
  inhibition of disease (gut score and weight and microscopic changes): significant inhibition
[3]; 10 mg/kg once daily oral
  progression of established disease (arthritis): stopped the progression; also recorded: significantly inhibited
[3]; 10 mg/kg, after 7 days
  ankle histopathology (joints): Near normal joints with minimal inflammation
[3]; 60 mg/kg once daily oral
  established disease, improvement: improvement to normal
[3]; 1 and 3 mg/kg, after 7 days, FIG. 3
  pannus formation, cartilage damage and bone resorption (ankle histopathology): significantly inhibited
[3]; AR-14 10 mg/kg
  ankle histopathology compared with indomethacin or ENBREL: significantly better than indomethacin or ENBREL
[3]; AR-14 10 mg/kg vs ENBREL 10 mg/kg s.c.
  activity on ankle diameter compared with ENBREL (etanercept): better than that of ENBREL
[3]; AR-14 10 mg/kg vs indomethacin 1 mg/kg
  activity on ankle diameter compared with indomethacin: equivalent to indomethacin
[3]; Rattus norvegicus, 168 h, after 7 days, once daily oral, read-out: ED50 (inhibition of body weight loss)
  ED50: 4.57 mg/kg
[3]; all doses administered (1, 3, 10, 30, 60 mg/kg, once daily oral)
  tolerability: well tolerated
[3]; all doses tested (1-60 mg/kg), over 7 days, FIG. 1
  ankle swelling (ankle/paw diameter) compared to vehicle control: significantly inhibited
[3]; all doses tested, after 7 days, FIG. 2
  body weight loss: significantly inhibited
[3]; dose of 1 mg/kg, 1 mg/kg
  joint destruction: significantly inhibited; also recorded: significant inhibition
[3]; doses of 30 and 60 mg/kg, after 7 days
  body weight: near normal body weights
[3]; once daily oral 10 mg/kg
  acute gross and microscopic inflammation: reversal
[4]; 30 mg/kg
  progression of established disease: stopped the progression of established disease and causes improvement to normal
[4]; 30 mg/kg, after 15 days, FIG. 5
  body weight loss: significantly inhibited
[4]; 30 mg/kg, after 15 days, comparable to methotrexate
  joints (paw weight study): Near normal joints with minimal inflammation
[4]; 3, 10 and 30 mg/kg, after 15 days, FIG. 7
  splenomegaly (relative spleen weight): significantly inhibited
[4]; 10 and 30 mg/kg
  inhibition of splenomegaly compared with methotrexate: comparable to that seen with methotrexate
[4]; AR-14 30 mg/kg vs methotrexate 0.075 mg/kg
  activity compared with methotrexate: equivalent to methotrexate
[4]; all doses administered (1, 3, 10, 30 mg/kg, once daily oral)
  tolerability: well tolerated
[4]; all doses tested, over 15 days, FIG. 4
  ankle swelling (paw diameter) compared to vehicle control: significantly inhibited
[4]; all doses, after 15 days, FIG. 6
  paw weight gain (edema/inflammation) compared to vehicle control: significantly inhibited
[4]; once daily oral 30 mg/kg
  acute gross and microscopic inflammation: reversal
